Where no end group is shown, it is not given here. TAMRA = carboxytetramethylrhodamine label; Cy5 = cyanine 5 label
Columns and labels:
SH3A−B domain of p47phox = molecular target: SH3A−B domain of p47phox; parameters: method as in Garsi et al., 2022; conditions: ref Garsi et al., 2022; read-out: Kd (SPR); cited from earlier work
[1] = molecular target: T1, p47phox^SH3A−B (human His-tagged p47phox^151−286) (Homo sapiens, UniProt P14598); experiment: Fluorescence polarization (FP) competition assay; assay type: binding; conditions: for Ki: over 2–20 min
T1 construct: human His-tagged p47phox^151−286
T1 sequence (P14598 151-286): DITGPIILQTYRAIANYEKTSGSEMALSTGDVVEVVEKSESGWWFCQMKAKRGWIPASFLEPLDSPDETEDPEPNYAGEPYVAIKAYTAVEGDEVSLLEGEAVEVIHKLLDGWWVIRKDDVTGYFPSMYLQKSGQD
Procedure: Synthesized compounds were then tested for their ability to inhibit the interaction between p47phox^SH3A−B and the fluorescent peptide probes in 1×HBST (2% DMSO). The non-fluorescent p22phox^151−162 peptide (Sequence: Ac-[…]-NH2) was used as a control. […] FP values were fitted to the equation Y = Bottom + (Top-Bottom)/{1 + 10^[(LogIC50-X)*HillSlope]}, where X is the logarithmic value of the compound concentration. Hereby, the IC50 value was obtained, which together with the K d value, probe and p47phox^SH3A−B concentrations was used to calculate the theoretical competitive inhibition constant, the K i value. […] Here, 5 and 8 µM of p47phox^SH3A−B concentration was used for Cy5-p22phox^149−162 and TAMRA-p22phox^151−162, respectively.

NOX2 [2] = molecular target: T2, NOX2 (Homo sapiens, UniProt P04839); experiment: NOX2 cell-based assay (WST1, PMA-activated PLB-985 cells); conditions: PMA-stimulated differentiated PLB-985 cells, superoxide (WST1)
T2 construct: endogenous in cells
T2 sequence (P04839 2-570 limits assumed): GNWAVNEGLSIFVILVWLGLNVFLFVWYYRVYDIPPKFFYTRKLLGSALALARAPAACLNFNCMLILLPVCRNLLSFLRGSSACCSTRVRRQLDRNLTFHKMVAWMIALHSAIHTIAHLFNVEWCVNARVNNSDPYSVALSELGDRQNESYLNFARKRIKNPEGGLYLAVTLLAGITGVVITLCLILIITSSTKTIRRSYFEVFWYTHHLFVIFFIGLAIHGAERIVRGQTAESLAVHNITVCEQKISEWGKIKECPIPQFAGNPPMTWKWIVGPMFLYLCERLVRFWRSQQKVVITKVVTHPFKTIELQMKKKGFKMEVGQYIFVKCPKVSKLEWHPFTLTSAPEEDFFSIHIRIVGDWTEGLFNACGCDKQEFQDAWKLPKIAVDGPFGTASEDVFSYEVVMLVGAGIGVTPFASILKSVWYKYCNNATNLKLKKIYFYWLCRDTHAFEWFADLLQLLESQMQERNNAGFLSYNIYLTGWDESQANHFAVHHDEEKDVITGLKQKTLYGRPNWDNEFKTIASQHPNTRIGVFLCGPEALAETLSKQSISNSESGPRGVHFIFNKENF
T2 sequence (P13498 2-195 partner limits assumed): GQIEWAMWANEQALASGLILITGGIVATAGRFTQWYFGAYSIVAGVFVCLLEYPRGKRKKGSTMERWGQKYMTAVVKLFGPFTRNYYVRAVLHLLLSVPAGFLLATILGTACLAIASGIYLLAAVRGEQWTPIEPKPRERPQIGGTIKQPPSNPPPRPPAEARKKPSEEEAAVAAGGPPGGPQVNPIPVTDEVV
Procedure: The assay measures extracellular superoxide generated by PMA-activated NOX2 in PLB-985 cells using the cell-impermeable tetrazolium salt WST1 as probe ([Tan and Berridge, 2000]). […] NOX2 was activated by addition of phorbol-12-myristate-13-acetate PMA (10 nM final). Absorbance (OD440) was measured with a Spectramax Paradigm reader (Molecular Devices) for 3 h. To graph the data, the rate of superoxide was calculated for the first hour.

p47phox^SH3A−B = molecular target: T3, p47phox^SH3A−B (Homo sapiens, UniProt P14598); experiment: Covalent binding assay (LC−MS); conditions: 15 min
T3 sequence (P14598 151-286): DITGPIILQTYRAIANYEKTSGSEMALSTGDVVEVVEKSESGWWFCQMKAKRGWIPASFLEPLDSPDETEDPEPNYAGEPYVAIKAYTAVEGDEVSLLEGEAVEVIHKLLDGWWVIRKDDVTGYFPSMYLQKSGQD
Procedure: LC−MS spectra were obtained using the same LC–MS system, solvents, and gradient as for the chemical stability assay, but here the LC–MS was installed with a Poroshell C18 reverse-phase column (Agilent, Poroshell, 300SB-C18, 2.1 × 75 mm). Injection volume was 10 µL and the protein eluted at 3.2 min.
Mass source parameters: Ion polarity, positive mode; drying gas flow, 12 L/min at 250 °C; nebulizer, 35 psig; VCap, 3000 V; Fragmentor, 70 V; mass scan range, 100–2000 m/z. Mass peak deconvolution was carried as described in literature (Winkler, 2010) (https://www.bioprocess.org/esiprot/esiprot_form.php). (A) LC–MS […]
corresponding to the theoretical MW of p47phox SH3A–B (17300.38 Da). (B) LC–MS data of 0.2 mg/mL […]
17300.3 Da and another (see red arrows) is a protein adduct with MW of 17421.9 ± 0.29 Da (ΔMW relative to […]
p47phoxSH3A–B is 122 Da).
MW of 17574.0 Da ± 0.23 Da (ΔMW relative to p47phoxSH3A–B is 274 Da corresponding to an ebselene-protein […]
with p47phoxSH3A–B. Similar to a phenolic Mannich base, the reaction involves an LMH001-derived quinone methide intermediate that reacts with nucleophiles from the protein leading to a +122 Da protein adduct.
(1 picture or pasted object on this page, not shown here)

NOX2 [3] = system: NOX2; parameters: method as in Fan et al., 2022; conditions: COS-phox cells activated by PMA; ref Fan et al., 2022; read-out: IC50, NOX2 superoxide inhibition; cited from earlier work
[4] = parameters: method as in Fan et al., 2022; conditions: mice, iv injection; ref Fan et al., 2022; cited from earlier work
GST-p47phox^SH3A−B = system: GST-p47phox^SH3A−B; parameters: method as in Fan et al., 2022; conditions: GST-p47phox^SH3A−B / FITC-labelled p22phox^151-162 peptide, ref Fan et al., 2022, cited from earlier work
[5] = Chemical stability assay (LC−MS); assay type: physicochemical
Procedure: A binary solvent system of buffer A (H2O/acetonitrile (MeCN)/formic acid, 95:5:0.1 v/v%) to buffer B (MeCN/formic acid, 99.9:0.1 v/v%) and a flow rate of 1 mL/min was used. Injection volume was 5 µL. Total sample run time was 6 min, and the percentage of buffer B increases from 0% to 100% during 0.25–4.25 min, maintains at 100% until 5 min, then decreases to 0% at 5.10 min, and stays at 0% until 6 min.

[6] = system: p47phox/p22phox interaction; parameters: method as in Smith et al., 2012; conditions: ref Smith et al., 2012; cited from earlier work
[7] = molecular target: T4, p47phox^SH3A-B (human His-tagged p47phox^151-286) (human, UniProt P14598 151-286); experiment: FP; in water
T4 chain: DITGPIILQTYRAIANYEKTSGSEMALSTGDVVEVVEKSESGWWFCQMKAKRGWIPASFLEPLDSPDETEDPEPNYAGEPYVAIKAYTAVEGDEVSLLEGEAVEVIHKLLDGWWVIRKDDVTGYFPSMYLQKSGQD

[8] = molecular target: T4, p47phox^SH3A-B (human His-tagged …); experiment: FP; 1×HBST
[9] = tested as isolated compounds, 1×HBST, Cy5 or TAMRA probe, 2 or 20 min

## N=C(N)NCCC[C@@H](CCCCC1CC1)NC(=O)[C@@H]1CCCN1C(=O)[C@@H]1CCCN1C(=O)[C@@H]1CCCN1C(=O)CCC(=O)Nc1cccc(-c2ccc(Cl)c(Cl)c2)c1 [compound 2]
SH3A−B domain of p47phox
  Kd: 0.043 µM

## OCc1cccc(O)c1O [compound 15]
[1]; [9]
  Activity in the FP assay: inactive
NOX2 [2]; read-out: IC50, NOX2 inhibition
  IC50: 63 µM

## Ac-PPTNPPPRPPAE-NH2 [p22phox^151–162]
[1]; 1×HBST, probe Cy5-p22phox^149–162
  Ki: 14 to 22 µM
[1]; 1×HBST, probe TAMRA-p22phox^151–162
  Ki: 17 to 31 µM
[1]; water, probe Cy5-p22phox^149–162
  Ki: 170 to 220 µM
[1]; water, probe TAMRA-p22phox^151–162
  Ki: 140 to 155 µM

## O=C(O)c1ccc(O)c(CO)c1 [compound 13]
[1]; [9]
  Activity in the FP assay: inactive
NOX2 [2]
  IC50, NOX2 inhibition: no activity

## O=C(OCc1cccc(O)c1O)c1ccc(O)c(CO)c1 [LMH001]
[1]; up to 400 µM, 1×HBST, Cy5 or TAMRA probe, 2 or 20 min incubation
  Activity in the FP assay: did not show any activity
[1]; water instead of 1×HBST, Cy5 or TAMRA probe, 2 or 20 min
  Activity in the FP assay in pure water: did not result in any measurable activity
p47phox^SH3A−B; 200 µM (17-fold molar excess), HBST
  p47phox^SH3A−B modified: 20%–30%
p47phox^SH3A−B; 200 µM, water
  Conversion of p47phox^SH3A−B to adduct: negligible conversion
NOX2 [3]
  IC50: […]
[4]
  half-life: 2.52 min
GST-p47phox^SH3A−B
  IC50: 0.149 µM
GST-p47phox^SH3A−B; read-out: Ki (FP)
  Ki: 0.054 µM
[5]; 1×HBST pH 6 to 8, 30 min
  Degradation in the HBST buffer as function of pH: increased with pH
[5]; H2O, 5 min
  LMH001 remaining: 86%
[5]; H2O, 30 min
  LMH001 remaining: 76%
[5]; HBST, 5 min, 100 µM, relative to MeCN 5 min
  LMH001 remaining: 13%
[5]; HBST, 30 min
  LMH001 remaining: 3%

## O=c1c2ccccc2[se]n1-c1ccccc1 [Ebselen]
[6]
  IC50: 0.3 µM
p47phox^SH3A−B; 200 µM compound, 0.2 mg/mL p47phox^SH3A−B, HBST
  Protein mass increase (ΔMW relative to p47phox^SH3A–B): 274 Da
p47phox^SH3A−B; 200 µM, HBST
  Conversion of p47phox^SH3A−B to molecular adduct: fully converted

## {TAMRA}-PPTNPPPRPPAE [carboxytetramethylrhodamine (TAMRA)-p22phox^151-162]
[7]
  Kd: 40 µM
[8]
  Kd: 7 µM

## Cy5-KQPPTNPPPRPPAE [cyanine 5 (Cy5)-p22phox^149-162]
[7]
  Kd: 12 µM
[8]
  Kd: 1.9 µM
